Experiments:
Type in all cases: in vivo
[1] = tested on: damping-off fungus (Rhizoctonia solani); assay: Test Example 23: soybean seed treatment, damping-off control in pots; settings: soybean seeds, 20 days after
[2] = tested on: damping-off fungus (Pythium spp.); assay: Test Example 21: corn seed treatment, damping-off control in pots; settings: corn seeds, 20 days after
Procedure: In a rotary seed treatment machine (trade name: HEGE11, manufactured by WINTERSTEIGER), corn seeds (variety: yellow dent corn) were treated by smearing treatment using a flowable formulation of the present bacterial strain as obtained in Formulation Example 13 and ethaboxam flowable formulation (34.6% flowable formulation, Valent U.S.A. Corporation), so that the […] retain the present bacterial strain and/or the compound in the amount shown in Table 6.
Cultivation was carried out in a greenhouse under irrigation. Also, similar procedures were conducted using untreated corn seeds, instead of the treated corn seeds, as described above for the treated compartment (“untreated compartment”). The plants were investigated 20 days after for the number of diseased plants, and the disease incidence was calculated by the following “Equation 1”. The control value of the treated compartment was calculated by the following equation “Equation 2”, based on the disease incidences of the treated compartment and the untreated compartment.
Disease incidence (%)=100×(number of diseased plant/total number of seeded seeds): Equation 1
Control value (%)=100×[(disease incidence in […] in treated compartment)/disease incidence in untreated compartment]: Equation 2
If the effect by the combination of two active ingredients is greater than that of the estimated value E, which is calculated by the Colby's equation as follows, the effect is regarded as synergistic.
wherein, E=Control value when using the mixture of the active ingredients A and B at the concentrations m and n (amount of the active ingredient), respectively. X=Control value when using the active ingredient A at the concentration m (amount of the active ingredient). Y=Control value when using the active ingredient B at the concentration n (amount of the active ingredient).

[3] = tested on: damping-off fungus (Pythium spp.); assay: Test Example 22: soybean seed treatment, damping-off control in pots; settings: soybean seeds, 20 days after
Procedure: If the effect by the combination of two active ingredients is greater than that of the estimated value E, which is calculated by the Colby's equation as follows, the effect is regarded as synergistic. E=X+Y-X·Y/100 wherein, E=Control value when using the mixture of the active ingredients A and B at the concentrations m and n (amount of the active ingredient), respectively. X=Control value when using the active ingredient A at the concentration m (amount of the active ingredient). Y=Control value when using the active ingredient B at the concentration n (amount of the active ingredient). […] Corporation) and metalaxyl flowable formulation (30.14% flowable formulation, trade name: […] Cultivation was carried out in a greenhouse under irrigation. Also, similar procedures were conducted using untreated soybean seeds, instead of the treated soybean seeds, as described above for the treated compartment (“untreated compartment”). […] Disease incidence (%)=100×(number of diseased plant/total number of seeded seeds): […]

In the case of CC1CC(C)(C)c2cccc(NC(=O)c3cn(C)nc3C(F)F)c21 (racemic) [The Carboxamide Compound (1)], the “Control Value” ([1]; carboxamide compound (1) 0.0004 g/kg seeds) is reported as 40.0%, the “Control Value” ([1]; carboxamide compound (1) 0.002 g/kg seeds) is reported as 54.3% and the “Control Value” ([1]; carboxamide compound (1) 0.01 g/kg seeds) is reported as 65.7%.
CCNc1nc(CC)c(C(=O)NC(C#N)c2cccs2)s1 (stereo not drawn) [Ethaboxam, ethaboxam] was tested, and the “Control Value” ([2]; ethaboxam 0.00625 g/kg seeds) was 19.4%, the “Control Value” ([2]; ethaboxam 0.025 g/kg seeds) was 32.3% and the “Control Value” ([2]; ethaboxam 0.1 g/kg seeds) was 48.4%. For the same compound, the “Control Value” ([3]; ethaboxam 0.075 g/kg seeds) was 46.9%, the “Control Value” ([3]; ethaboxam 0.15 g/kg seeds) was 56.2% and the “Control Value” ([3]; ethaboxam 0.3 g/kg seeds) was 62.5%.
With N#Cc1c[nH]cc1-c1cccc2c1OC(F)(F)O2 [Fludioxonil, fludioxonil] the “Control Value” ([1]; fludioxonil 0.004 g/kg seeds) was 25.7%, the “Control Value” ([1]; fludioxonil 0.02 g/kg seeds) was 37.1% and the “Control Value” ([1]; fludioxonil 0.1 g/kg seeds) was 48.6%.
In the case of COCC(=O)N(c1c(C)cccc1C)C(C)C(=O)OC (stereo not drawn) [Metalaxyl, metalaxyl], the “Control Value” ([3]; metalaxyl 0.01 g/kg seeds) is reported as 40.6%, the “Control Value” ([3]; metalaxyl 0.04 g/kg seeds) is reported as 50.0% and the “Control Value” ([3]; metalaxyl 0.16 g/kg seeds) is reported as 59.4%.
For COP(=S)(OC)Oc1c(Cl)cc(C)cc1Cl [Tolclofos-Methyl, tolclofos-methyl], the “Control Value” ([1]; tolclofos-methyl 0.01 g/kg seeds) was 11.4%, the “Control Value” ([1]; tolclofos-methyl 0.05 g/kg seeds) was 28.6% and the “Control Value” ([1]; tolclofos-methyl 0.25 g/kg seeds) was 42.8%.

Reference: patent publication US20180213795A1, “PLANT DISEASE CONTROL COMPOSITION AND PLANT DISEASE CONTROL METHOD” (SUMITOMO CHEMICAL COMPANY, LIMITED, priority 2015, published 2018)
